Experimental data: patent US20050215567A1, “1-[2H-1-benzopyran-2-one-8-yl]-piperazine derivatives for the treatment of pain” (SOLVAY PHARMACEUTICALS B.V., priority 2004, published 2005)
Entries after “also recorded” stand apart in the source; their conditions may differ.

Key:
[1] = tested on: acetic acid induced writhing; experiment: Acetic acid writhing test (acute pain model); type: in vivo, mice; settings: Mus musculus, po
Protocol: Phenylbenzoquinone and acetic writhing tests in mice follow the methods described by Hendershot et al (J. Pharmacol. Exp. Ther. 1959, 125: 237-240): Mice are injected with phenylbenzoquinone (PBQ) (1.25 mg/kg ip.) or acetic acid (0.5% ip.). This treatment induces a recognizable writhing response in control animals. The number of writhes is counted for 10 minutes beginning 5 minutes after injection of PBQ or acetic acid.

hot plate latency = experiment: Hot plate test (acute pain model); type: in vivo, mice; settings: for Latency of animal to remove itself from the hotplate seconds ± STDerr: 30 minutes after administration; for analgesic effect in the hot plate test (in words): i.p., morphine 7.5 mg/kg, compound 1 0.1 mg/kg, sumatriptan 10 mg/kg
Protocol: Hot plate test in mouse or rat according to Eddy and Leimbach (J. Pharmacol. Exp. Ther. 1953, 107: 385-393): Mice or rats are placed onto a hot metal plate maintained at 54° C. for mice or 52° C. for rats surrounded by a Plexiglas cylinder (Height: 13 cm; Diameter: 19 cm). The latency to the first foot-lick is measured (maximum: 30 seconds).
Compound 1 and other compounds were tested on the hotplate 30 minutes after intraperitoneal administration. A description of the method is given above.

[2] = Sedative effects after oral dosing; type: in vivo; settings: dosages of up to 100 mg/kg p.o.

SMILES	ED50 [1]	Latency of animal to remove itself from the hotplate seconds ± STDerr (hot plate latency; 0.1 mg/kg i.p.)	ED50 (hot plate latency; Mus musculus, po, read-out: ED50 hot plate test)	sedative effects [2]	Latency of animal to remove itself from the hotplate seconds ± STDerr (hot plate latency; 7.5 mg/kg i.p.)	analgesic effect in the hot plate test (in words) (hot plate latency)	Latency of animal to remove itself from the hotplate seconds ± STDerr (hot plate latency; 10 mg/kg i.p.)	analgesic effect in the hot plate test (in words) (hot plate latency; listed as Sumatriptan)	antagonism of the analgesic effect of compound 1 in the hot plate test (hot plate latency; sumatriptan 10 mg/kg i.p. with compound 1 0.1 mg/kg i.p., P-value=0.0001, Wilcoxon test)
Nc1cc2cccc(N3CCNCC3)c2oc1=O [Compound 1, 3-amino-8-(1-piperazinyl)-2H-1-benzopyran-2-one]	1.82 mg/kg	8.4 ± 0.5 s	3.2 mg/kg	devoid of sedative effects	–	–	–	–	–
CN1CC[C@]23c4c5ccc(O)c4O[C@H]2[C@@H](O)C=C[C@H]3[C@H]1C5 [morphine]	–	–	–	–	7.8 ± 0.3 s	nearly doubles the latency	–	–	–
CNS(=O)(=O)Cc1ccc2[nH]cc(CCN(C)C)c2c1 [sumatriptan]	–	–	–	–	–	inactive	3.9 ± 0.3 s	completely inactive	nearly completely antagonizes; also recorded: nearly completely blocked
